# Data: article PMC5569068, “Potential inhibitors designed against NDM-1 type metallo-β-lactamases: an attempt to enhance efficacies of antibiotics against multi-drug-resistant bacteria” (Scientific Reports, 2017)
# What was measured:
# [1] = tested on: E. coli DH5α transformed with recombinant NDM-1 (pQE-2- NDM-1); experiment: microbe, parasite or virus in culture; format: cell-based; conditions: for Minimum inhibitory concentration: (pQE-2- NDM-1) DH5α; for MIC: Escherichia coli, read-out: Minimum inhibitory concentration; for MIC of antibiotic when combined with each of the five molecules: bla NDM-1 clone, combined with M1, M17, M21, M61 or M75
# Experimental: (§1) The MIC was determined for E. coli DH5α cells, E. coli DH5α cells with vector and E. coli DH5α cells with bla NDM-1 carrying vectors. […] We next assayed the activities of these drugs in combination with novel screened molecules.
# (§2) The MICs of four antibiotics were calculated (Table 4).
# [2] = tested on: original DH5α (with null vector) (pQE-2- Original); experiment: microbe, parasite or virus in culture; format: cell-based, E. coli; conditions: (pQE-2- Original) DH5α; for MIC: Escherichia coli, read-out: Minimum inhibitory concentration
# Experimental: as §1, §2
Structure (SMILES),Minimum inhibitory concentration [1] [µg/mL],MIC [1] [µg/mL],MIC of antibiotic when combined with each of the five molecules [1] [µg/mL],MIC [2] [µg/mL],Minimum inhibitory concentration [2] [µg/mL]
C[C@@H](O)[C@H]1C(=O)N2C(C(=O)O)=C(S[C@@H]3CN[C@H](C(=O)N(C)C)C3)[C@H](C)[C@H]12 [Meropenem],2.00,2,1,0.5,
CO/N=C(\C(=O)N[C@@H]1C(=O)N2C(C(=O)O)=C(COC(C)=O)CS[C@H]12)c1csc(N)n1 [Cephotaxime],512,,,,0.25
C[C@@H](O)[C@H]1C(=O)N2C(C(=O)O)=C(SCCN=CN)C[C@H]12 [Imipenem],2.00,2,1,0.5,
CC(C)(O/N=C(\C(=O)N[C@@H]1C(=O)N2C(C(=O)[O-])=C(C[n+]3ccccc3)CS[C@H]12)c1csc(N)n1)C(=O)O [Ceftazidime],8.00,8,4,0.25,
CO[C@@]1(NC(=O)Cc2cccs2)C(=O)N2C(C(=O)O)=C(COC(N)=O)CS[C@@H]21 [Cefoxitin],16.0,16,8,2,
